In US11203596B2, “Analogs of 3-amino-4-(propan-2-ylidene)cyclopentane-1-carboxylic acid and uses thereof for treating diseases and disorders associated with ornithine aminotransferase activity” (Northwestern University, priority 2019, dated 2021):
Where two headings read alike, the source gives them in different places.

Key:
hOAT [1] = target: T1, hOAT (Homo sapiens, UniProt P04181); test: coupled enzyme hOAT assay; assay type: biochemical
T1 construct: made in house
T1 sequence (P04181 36-439 limits assumed): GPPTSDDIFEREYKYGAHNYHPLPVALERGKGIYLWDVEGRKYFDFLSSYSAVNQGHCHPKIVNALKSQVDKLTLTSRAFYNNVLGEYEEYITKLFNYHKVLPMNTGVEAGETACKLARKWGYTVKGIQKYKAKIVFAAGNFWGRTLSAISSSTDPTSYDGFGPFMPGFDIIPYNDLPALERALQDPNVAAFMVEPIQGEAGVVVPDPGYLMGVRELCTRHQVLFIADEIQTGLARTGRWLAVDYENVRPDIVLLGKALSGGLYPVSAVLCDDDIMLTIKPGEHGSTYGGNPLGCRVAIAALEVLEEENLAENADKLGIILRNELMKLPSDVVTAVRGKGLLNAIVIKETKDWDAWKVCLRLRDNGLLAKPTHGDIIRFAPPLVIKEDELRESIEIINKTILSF
Procedure: With inhibitors in hand, we tested for activity in a previously developed coupled enzyme hOAT assay.^9,21
hOAT and PYCR1 were expressed, grown, and purified according to literature procedures.^22,23 GABA-AT was isolated from pig brains and purified according to literature procedure.^16 Coupled enzyme assays for GABA-AT and hOAT were carried out according to previous procedures.^15,21 All chemical were purchased from Sigma Aldrich, Acros Organics, or Matrix Scientific and used without further purification. Anhydrous solvents (THF, CH2Cl2, DMF) were purified before use by passing through a column composed of activated alumina and a supported copper redox catalyst. Yields refer to chromatographically and spectroscopically (^1H-NMR) homogeneous material. Analytical thin-layer chromatography (TLC) was performed using Merck Silica Gel 60 Å F-254 precoated plates (0.25 mm thickness), and components were visualized by ultraviolet light (254 nm) and/or ceric ammonium molybdate stain. Flash column chromatography was performed on a Teledyne Combiflash Rf Plus automated flash purification system with various Teledyne cartridges (4-80 g, 40-63 μm, 60 Å). Purifications were performed with hexanes and ethyl acetate unless otherwise noted. ^1H and ^13C NMR spectra were recorded on a Bruker Avance-III NMR spectrometer at 500 MHz and 126 MHz, respectively, in CDCl3 or D2O. Chemical shifts were reported in ppm, multiplicities are indicated by s=singlet, d=doublet, t=triplet, q=quartet, sep=septet, dd=doublet of doublet, dt=doublet of triplet, m=multiplet, br=broad resonance. Coupling constants were reported in Hz. High resolution mass spectral data were obtained on an Agilent 6210 LC-TOF spectrometer in the positive ion mode using electrospray ionization with an Agilent G1312A HPLC pump and an Agilent G1367B autoinjector at the Integrated Molecular Structure Education and Research Center (IMSERC), Northwestern University. Analytical HPLC was performed by using a reserved-phase Agilent Infinity 1260 HPLC with a Phenomenex Kintex C-18 column (50×2.1 mm, 2.6 μm), detecting with UV absorbance at 254 nm.

hOAT [2] = target: T1, hOAT; settings: earlier work, cited from earlier work
HCC = HCC infected/bearing mice; cited from earlier work

SMILES | activity against hOAT (in words) (hOAT [1]) | Ki (hOAT [1]; hOAT inactivation) | kinact (hOAT [1]; hOAT inactivation, read-out: kinact (converted)) | kinact/KI (hOAT [1]; hOAT inactivation, read-out: kinact/KI (converted)) | activity against hOAT (in words) (hOAT [1]; hydrochloride) | activity against hOAT (in words) (hOAT [1]; listed as (1S,3S,Z)-3-amino-4-(1,1,1-trifluoro-3-methoxy-3-oxopropan-2-ylidene)cyclopentan, hydrochloride) | inhibition/inactivation of human OAT (in words) (hOAT [2]) | inhibition/inactivation of human OAT (in words) (hOAT [2]; listed as (1S,3 S)-3-amino-4-(perfluoropropan-2-ylidene)cyclopentane-1-carboxylic acid) | HCC marker protein alpha-fetoprotein (HCC) | tumor size (HCC) | kinact (hOAT [1]) | kinact/KI (hOAT [1])
COC(=O)/C(=C1/C[C@H](C(=O)O)C[C@@H]1N)C(F)(F)F.Cl [Compound 11, (1S,3S,E)-3-amino-4-(1,1,1-trifluoro-3-methoxy-3-oxopropan-2-ylidene)cyclopentane-1-carboxylic acid hydrochloride] | inactive | ≥ 2000 µM | – | – | – | – | – | – | – | – | – | –
COC(=O)/C(=C1\C[C@H](C(=O)O)C[C@@H]1N)C(F)(F)F.Cl [Compound 10, (1S,3S,Z)-3-amino-4-(1,1,1-trifluoro-3-methoxy-3-oxopropan-2-ylidene)cyclopentane-1-carboxylic acid hydrochloride] | – | 130 µM | 0.00167 s⁻¹ | 12.2 M⁻¹ s⁻¹ | similarly potent inhibitor of hOAT | active | – | – | – | – | – | –
N[C@H]1C[C@@H](C(=O)O)CC1=C(C(F)(F)F)C(F)(F)F [Compound 1, (1S,3S)-3-amino-4-(perfluoropropan-2-ylidene)cyclopentane-1-carboxylic acid] | – | 53 µM | – | – | – | – | potent inhibitor | potent inactivator | decrease | decrease | 0.00133 s⁻¹ | 25.7 M⁻¹ s⁻¹
